# Structures can show the parent of a compound that is named as a salt.
row,melting point,Structure (SMILES)
1,145 °C,COCC/C(=N\c1cccc(CN(C)c2nc(=O)c3c(OC)c(OC)c(OC)cc3[nH]2)c1)N(C)C.Cl
2,166 to 169 °C,COc1cc2[nH]c(N(C)Cc3ccc(CN4CCC(O)C4)cc3)nc(=O)c2c(C)c1OC (centres unmarked)
3,181.5 to 189.4 °C,COc1cc2[nH]c(N(C)Cc3cccc(C4CCN(C)CC4)c3)nc(=O)c2c(OC)c1OC.Cl
4,220 to 223 °C,COc1cc2[nH]c(N(C)Cc3cccc(N4CCCC4)c3)nc(=O)c2cc1OC.Cl
5,139.7 to 146.6 °C,"COc1ccc(CN(C)c2nc(=O)c3c(OC)c(OC)c(OC)cc3[nH]2)cc1OCC(CO)CO (as salt: HCl) [Example 3, 2-{[3-(3-Hydroxy-2-hydroxymethyl-propoxy)-4-methoxy-benzyl]-methyl-amino}-5,6,7-trimethoxy-1H-quinazolin-4-one]"
6,220 to 224 °C,"COc1cc2[nH]c(N(C)Cc3cccc(OCC(O)CO)c3)nc(=O)c2c(C)c1OC (centres unmarked) (as salt: HCl) [Example 7, 2-{[3-(2,3-Dihydroxy-propoxy)-benzyl]-methyl-amino}-6,7-dimethoxy-5-methyl-1H-quinazolin-4-one]"
7,197.5 to 199 °C,"COc1cc2[nH]c(N(C)Cc3ccc(OCC(CO)CO)cc3)nc(=O)c2c(C)c1OC (as salt: HCl) [Example 15, 2-{[4-(3-Hydroxy-2-hydroxymethyl-propoxy)-benzyl]-methyl-amino}-6,7-dimethoxy-5-methyl-1H-quinazolin-4-one]"
8,172.9 to 175.9 °C,"COc1cc2[nH]c(N(C)Cc3cccc(N4CCC(O)C4=O)c3)nc(=O)c2c(OC)c1OC (centres unmarked) (as salt: HCl) [Example 22, 2-{[3-(3-Hydroxy-2-oxo-pyrrolidin-1-yl)-benzyl]-methyl-amino}-5,6,7-trimethoxy-1H-quinazolin-4-one]"
9,265 to 268 °C,"COCCNCc1ccc(CN(C)c2nc(=O)c3c(C)c(OC)c(OC)cc3[nH]2)cc1 (as salt: HCl) [Example 36, 6,7-Dimethoxy-2-({4-[(2-methoxy-ethylamino)-methyl]-benzyl}-methyl-amino)-5-methyl-1H-quinazolin-4-one]"
10,248.2 to 249.4 °C,"COc1cc2[nH]c(N(C)Cc3ccc(CN)cc3)nc(=O)c2c(C)c1OC (as salt: HCl) [Example 42, 2-[(4-Aminomethyl-benzyl)-methyl-amino]-6,7-dimethoxy-5-methyl-1H-quinazolin-4-one]"
11,191 to 192.2 °C,"COc1cc2[nH]c(N(C)Cc3ccc(OCCCN(C)C)cc3)nc(=O)c2c(C)c1OC (as salt: HCl) [Example 44, 2-{[4-(3-Dimethylamino-propoxy)-benzyl]-methyl-amino}-6,7-dimethoxy-5-methyl-1H-quinazolin-4-one]"
12,264 to 268 °C,"CNCc1ccc(CN(C)c2nc(=O)c3c(C)c(OC)c(OC)cc3[nH]2)cc1 (as salt: HCl) [Example 55, 6,7-Dimethoxy-5-methyl-2-[methyl-(4-methylaminomethyl-benzyl)-amino]-1H-quinazolin-4-one]"
13,242 to 245 °C,"COc1cc2[nH]c(N(C)Cc3cccc(/N=C/N(C)C)c3)nc(=O)c2cc1OC (as salt: HCl) [Example 86, N′-(3-{[(6,7-Dimethoxy-4-oxo-1,4-dihydro-quinazolin-2-yl)-methyl-amino]-methyl}-phenyl)-N,N-dimethyl-formamidine]"
14,> 300 °C (dec.),"COc1cc2[nH]c(N(C)Cc3ccccc3N)nc(=O)c2c(OC)c1OC (as salt: HCl) [Example 104, 2-[(2-Amino-benzyl)-methyl-amino]-5,6,7-trimethoxy-1H-quinazolin-4-one]"
15,169 to 171.9 °C,"COc1cc2[nH]c(N(C)Cc3cccc(CN(C)CCO)c3)nc(=O)c2c(OC)c1OC (as salt: HCl) [Example 116, 2-[(3-{[(2-Hydroxy-ethyl)-methyl-amino]-methyl}-benzyl)-methyl-amino]-5,6,7-trimethoxy-1H-quinazolin-4-one]"
16,175 to 195 °C,"COc1cc2[nH]c(N(C)Cc3cccc(CC4CCN(C)CC4)c3)nc(=O)c2c(OC)c1OC (as salt: HCl) [Example 127, 5,6,7-Trimethoxy-2-{methyl-[3-(1-methyl-piperidin-4-ylmethyl)-benzyl]-amino}-1H-quinazolin-4-one]"
17,166.5 to 172.9 °C,"COc1cc2[nH]c(N(C)Cc3cccc(NC(C)=O)c3)nc(=O)c2c(OC)c1OC (as salt: HCl) [Example 174, N-(3-{[Methyl-(5,6,7-trimethoxy-4-oxo-1,4-dihydro-quinazolin-2-yl)-amino]-methyl}-phenyl)-acetamide]"
18,156 to 157.2 °C,COc1cc2[nH]c(N(C)Cc3cccc(N(C)CCCO)c3)nc(=O)c2c(OC)c1OC (as salt: HCl) [Example 187]

row,melting point,Structure (SMILES)
1,207 to 209.1 °C,"COCCCNc1cccc(CN(C)c2nc(=O)c3c(OC)c(OC)c(OC)cc3[nH]2)c1 (as salt: HCl) [Example 188, 5,6,7-Trimethoxzy-2-{[3-(3-methoxy-propylamino)-benzyl]-methyl-amino}-1H-quinazolin-4-one]"
2,166.7 to 168.1 °C,"COCCCN(C)c1cccc(CN(C)c2nc(=O)c3c(OC)c(OC)c(OC)cc3[nH]2)c1 (as salt: HCl) [Example 189, 5,6,7-Trimethoxy-2-({3-[(3-methoxy-propyl)-methyl-amino]-benzyl}-methyl-amino)-1H-quinazolin-4-one]"
3,279.9 to 281.5 °C,"COc1cc2[nH]c(N(C)Cc3cccc(C#N)c3)nc(=O)c2c(C)c1OC (as salt: TFA) [Example 96, 3-{[(6,7-Dimethoxy-5-methyl-4-oxo-1,4-dihydro-quinazolin-2-yl)-methyl-amino]-methyl}-benzonitrile]"
4,106.1 to 116.6 °C,"COc1cc2[nH]c(N(C)Cc3cccc(C4=NCCN4CCO)c3)nc(=O)c2c(OC)c1OC (as salt: TFA) [Example 245, 2-({3-[1-(2-Hydroxy-ethy)-4,5-dihydro-1H-imidazol-2-yl]-benzyl}-methyl-amino)-5,6,7-trimethoxy-1H-quinazolin-4-one]"
5,162.9 to 164.5 °C,"COCCN(C)Cc1cccc(CN(C)c2nc(=O)c3c(OC)c(OC)c(OC)cc3[nH]2)c1 (as salt: hydrochloride) [Example 117, 5,6,7-Trimethoxy-2-[(3-{[(2-methoxy-ethyl)-methyl-amino]-methyl}-benzyl)-methyl-amino]-1H-quinazolin-4-one]"
6,212.5 to 219.9 °C,"CCc1c(OC)c(OC)cc2[nH]c(N(C)Cc3cccc(N=C4N(C)CCN4C)c3)nc(=O)c12 (as salt: salt) [Example 207, 2-{[3-(1,3-dimethyl-imidazolidin-2-ylideneamino)-benzyl]-methyl-amino}-5-ethyl-6,7-dimethoxy-1H-quinaolin-4-one]"
7,220 to 223 °C,"COc1cc2nc(N(C)Cc3cccc(N4CCCC4)c3)[nH]c(=O)c2cc1OC (as salt: salt) [Example A-1, 6,7-Dimethoxy-2-[methyl-(3-pyrrolidin-1-yl-benzyl)-amino]-1H-quinazolin-4-one]"
8,224 to 227.8 °C,"COc1cc2[nH]c(N(C)Cc3cccc(Oc4ncccn4)c3)nc(=O)c2c(C)c1OC (as salt: salt) [Example F-3, 6,7-Dimethoxy-5-methyl-2-{methyl-[3-(pyrimidin-2-yloxy)-benzyl]-amino}-1H-quinazolin-4-one]"
9,170.6 to 172.5 °C,"COc1cc2nc(N(C)Cc3cccc(/N=C(\C)N(C)C)c3)[nH]c(=O)c2c(C)c1OC (as salt: salt) [Example G-1, N′-(3-{[(6,7-Dimethoxy-5-methyl-4-oxo-1,4-dihydro-quinazolin-2-yl)-methyl-amino]-methyl}-phenyl)-N,N-dimethyl-acetamidine]"
10,97.8 to 101.9 °C,"COc1cc2[nH]c(N(C)Cc3ccc(CN(C)CCC(F)(F)F)cc3)nc(=O)c2c(OC)c1OC [Example 1, 5,6,7-Trimethoxy-2-[methyl-(4-{[methyl-(3,3,3-trifluoro-propyl)-amino]-methyl}-benzyl)-amino]-1H-quinazolin-4-one]"
11,108.1 to 111.5 °C,"COCC(O)COc1ccc(CN(C)c2nc(=O)c3c(OC)c(OC)c(OC)cc3[nH]2)cc1 (centres unmarked) [Example 2, 2-{[4-(2-Hydroxy-3-methoxy-propoxy)-benzyl]-methyl-amino}-5,6,7-trimethoxy-1H-quinazolin-4-one]"
12,125.9 to 128 °C,"COc1cc2[nH]c(N(C)Cc3cccc(C(C)N(C)C(=O)N(C)C)c3)nc(=O)c2c(C)c1OC (centres unmarked) [Example 4, 1-[1-(3-{[(6,7-Dimethoxy-5-methyl-4-oxo-1,4-dihydro-quinazolin-2-yl)-methyl-amino]-methyl}-phenyl)-ethyl]-1,3,3-trimethyl-urea]"
13,117.9 to 120.1 °C,COC(=O)N(C)C(C)c1cccc(CN(C)c2nc(=O)c3c(C)c(OC)c(OC)cc3[nH]2)c1 (centres unmarked) [Example 5]
14,210.8 to 215.4 °C,"COc1ccc(CN(C)c2nc(=O)c3c(C)c(OC)c(OC)cc3[nH]2)cc1OCC(CO)CO [Example 6, 2-{[3-(3-Hydroxy-2-hydroxymethyl-propoxy)-4-methoxy-benzyl]-methyl-amino}-6,7-dimethoxy-5-methyl-1H-quinazolin-4-one]"
15,142.5 to 147.4 °C,"COc1cc2[nH]c(N(C)Cc3cccc(N4C[C@@H](OC)CC4=O)c3)nc(=O)c2c(OC)c1OC [Example 8, 5,6,7-Trimethoxy-2-{[3-((S)-4-methoxy-2-oxo-pyrrolidin-1-yl)-benzyl]-methyl-amino}-1H-quinazolin-4-one]"
16,159.4 to 160.4 °C,"COCCOC(=O)N(C)Cc1ccc(CN(C)c2nc(=O)c3c(C)c(OC)c(OC)cc3[nH]2)cc1 [Example 9, (4-{[(6,7-Dimethoxy-5-methyl-4-oxo-1,4-dihydro-quinazolin-2-yl)-methyl-amino]-methyl}-benzyl)-methyl-carbamic acid 2-methoxy-ethyl ester]"
17,238 to 240 °C,"COc1cc2[nH]c(N(C)Cc3ccc(CN(C)S(C)(=O)=O)cc3)nc(=O)c2c(C)c1OC [Example 10, N-(4-{[(6,7-Dimethoxy-5-methyl-4-oxo-1,4-dihydro-quinazolin-2-yl)-methyl-amino]-methyl}-benzyl)-N-methyl-methanesulfonamide]"
